Experimental findings from patent publication EP4692095A1, “SALT CRYSTAL FORM OF QUATERNARY FUSED RING COMPOUND, AND PREPARATION METHOD THEREFOR AND USE THEREOF” (Jiangsu Hansoh Pharmaceutical Group Co., Ltd., priority 2023, dated 2024) are described below.

Data set [1] in a line: Pharmacokinetic study in rats. Format: in vivo. The note with it: for AUC(0-inf) / Cmax / MRT / Tmax / half-life: in vivo, suspension in 0.5% HPMC K4M. The protocol:
The crystal form A of the p-tosylate of the compound was fully suspended in an aqueous solution of 0.5% HPMC (hydroxypropylmethyl cellulose) K4M, and then administered to rats by gavage at a dosage of 10 mg/kg and 30 mg/kg, with three rats in each parallel experiment. The amount of the compound was fully converted into the amount of an equivalent free base.

Data set [2] is described as follows: Pharmacokinetic study in dogs. It is filed as in vivo, beagle dogs. The protocol:
The crystal form A of the p-tosylate of the compound was fully suspended in an aqueous solution of 0.5% HPMC (hydroxypropylmethyl cellulose) K4M, and then administered to beagle dogs by gavage at a dosage of 20 mg/kg and a dose volume of 5 mL/kg, with three dogs in each parallel experiment. The amount of the compound was fully converted into the amount of an equivalent free base.

In data set [3] the test system is human chronic myeloid leukemia cell strain KCL22-s. The data set is described as follows: Efficacy on subcutaneous xenograft tumor model of KCL22-s. The note with it: oral, dosing cycle 15 days.
Data set [4] in a line: Thermodynamical stability experiment (polymorph screening by slurrying, XRPD). Format: physicochemical. The note with it: comparison of DSC patterns of crystal forms A-E.
A short description of data set [5]: Dynamic vapor sorption experiment. It is filed as physicochemical. The protocol: The crystal form A of the p-tosylate of the compound was placed in saturated water vapor with different relative humidities to reach a dynamic equilibrium between the compound and the water vapor, and the percentage of hygroscopic weight gain of the compound after reaching the equilibrium was calculated.

Data set [6] can be described thus: Thermodynamical stability experiment (polymorph screening by slurrying, XRPD). It is filed as physicochemical. The protocol: An organic solvent with certain solubility was selected, and the crystal form A of the p-tosylate of the compound was suspended in the solvent system. The resulting system was slurried by stirring at room temperature for 2 weeks, and centrifuged. The supernatant was discarded. After the solid was dried under vacuum at 50°C (-0.1 MPa) for 16 h, the XRPD pattern of the solid was measured and compared with the XRPD of the salt of the starting compound.

For data set [7], the system named is human chronic granulocytic leukemia cells KCL22-s. Nature of the data set: Inhibition of proliferation of tumor cell strains carrying BCR-ABL1 fusion mutations (CellTiter-Glo). Format: cell-based. As to conditions: KCL22-s (imatinib-sensitive strain), 72 h. From the text: (§1) The test objective was to evaluate the inhibitory activity of the compounds of the present invention against proliferation of human erythroleukemia cells K562, human peripheral blood basophilic leukemia cells Ku812, and human chronic granulocytic leukemia cells KCL22-s and KCL22-r cultured in vitro.
(§2) CellTiter-Glo® Luminescent Cell Viability Assay was used to detect the inhibitory effect of drugs on tumor cell proliferation and growth. The logarithmic growth phase cells cultured overnight were directly taken, pipetted up and down, mixed and counted, the cell density was adjusted according to different cell density requirements, and the cells were prepared into a cell suspension and plated on a 96-well plate. Drugs at different concentrations were added, three replicate wells were set for each concentration, and corresponding solvent controls were set. The maximum concentration of compound detected was 500 nM, with 3-fold gradient dilution, and a total of 9 concentrations (500-0.076 nM). The cells with the compound being added were cultured for another 72 h at 37°C and 5% CO2. The culture plate and its contents were equilibrated to room temperature, the CellTiter-Glo® reagent was added, the contents was mixed on a shaker for 3 min to induce cell lysis, the culture plate was further incubated at room temperature in the dark for 10 min, and the chemiluminescence signal value was determined by a microplate reader (BioTek SynergyH1).
On the technique in general: Cellular ATP, detected with luciferase, serves as a proxy for viable cell number.

Data set [8] concerns human erythroleukemia cells K562. The data set is described as above. Format: cell-based. As to conditions: 72 h.
Text: as §1, §2

Data set [9] relates to human chronic granulocytic leukemia cells KCL22-r. The data set is described as above. Format: cell-based. The note with it: KCL22-r (imatinib-resistant strain), 72 h.
Text: as §1, §2

Data set [10] deals with human peripheral blood basophilic leukemia cells Ku812. Described as above. It is filed as cell-based. The note with it: 72 h.
Text: as §1, §2

Data set [11] relates to Ba/F3 BCR-ABL1-G250E. The data set is described as follows: Inhibition of proliferation of BaF3 cells overexpressing BCR-ABL1 mutations (CellTiter-Glo). As to conditions: 72 h. Format: cell-based, Mouse. From the text:
(§3) The test objective was to evaluate the inhibitory activity of the compounds of the present invention against proliferation of the Ba/F3 BCR-ABL1-T315I, Ba/F3 BCR-ABL1-E255K, Ba/F3 BCR-ABL1-E255V, and Ba/F3 BCR-ABL1-G250E mutation models of mouse primary B cells cultured in vitro.
(§4) CellTiter-Glo® Luminescent Cell Viability Assay was used to detect the inhibitory effect of drugs on tumor cell proliferation and growth. The logarithmic growth phase cells cultured overnight were directly taken, pipetted up and down, mixed and counted, the cell density was adjusted according to different cell density requirements, and the cells were prepared into a cell suspension and plated on a 96-well plate. Drugs at different concentrations were added, 3 replicate wells were set for each concentration, and corresponding vehicle controls were set. The maximum test concentration in Ba/F3 BCR-ABL1-T315I and Ba/F3 BCR-ABL1-E255K cells was 10000 nM, with 3.16-fold gradient dilution and a total of 9 concentrations (10000-1.0058 nM). The maximum concentration of the compounds detected in other cells was 500 nM, with 3.16-fold gradient dilution, and a total of 9 concentrations (500-0.0503 nM). The cells with the compound being added were cultured for another 72 h at 37°C and 5% CO2. The culture plate and its contents were equilibrated to room temperature, the CellTiter-Glo® reagent was added, the contents were mixed on a shaker for 5 min to induce cell lysis, the culture plate was further incubated at room temperature in the dark for 20 min, and the luminescence was read with a microplate reader.

Data set [12] relates to Ba/F3 BCR-ABL1-T315I. Described as above. Format: cell-based, Mouse. The note with it: 72 h.
Text: as §3, §4

The subject of data set [13] is Ba/F3 BCR-ABL1-E255V. The data set is described as above. It is filed as cell-based, Mouse. The note with it: 72 h.
Text: as §3, §4

For data set [14], the system named is Ba/F3 BCR-ABL1-E255K. The description is as above. It is filed as cell-based, Mouse. As to conditions: 72 h.
Text: as §3, §4

In data set [15] the target is ABL1 WT kinase (Homo sapiens, UniProt P00519). The data set is described as follows: In vitro inhibitory activity against ABL1 WT kinase (capillary electrophoresis, substrate peptide phosphorylation). It is filed as biochemical. As to conditions: Maximum concentration 1 µM. Here is the method:
Capillary electrophoresis was used to detect the phosphorylation conversion rate of the substrate peptide to determine the IC50 value of the test compound for inhibiting the kinase (ABL1-WT). The maximum concentration of the compound tested in the test was 1000 nM, with 3-fold dilution, and a total of 12 concentrations (1000 - 0.0056 nM). First, an enzyme reaction system (the concentration of enzyme ABL1-WT was 1.3 nM, the concentration of substrate FLPeptide2 was 1.5 µM, and the reaction factor was 10 mM MgCl2) was prepared. After incubation at room temperature for 30 min, 5 µL of 4×ATP solution was added to start the enzyme reaction. After reacting at room temperature for 90 min, the reaction was stopped by adding a stop buffer (containing 0.5 M EDTA). The sample was analyzed using an EZ reader (analysis conditions: pressure -1.5PSI, upper voltage current -2250V, lower voltage current -500V, separation time 40 sec, system delay 100.0 sec).
From the conversion rate read by EZ Reader, the remaining activity was calculated according to the following formula. Remaining Activity (%) = 100% × (CRSample −CRLC)/(CRHC −CRLC) [formula]
IC50 was calculated using XLfit, and IC50 was calculated by Formula 201 as the fitting formula.

Where [16] appears, read: dog, in vivo, po, beagle dogs, gavage 20 mg/kg, suspension in 0.5% HPMC K4M.

ABL1 WT kinase, sequence (P00519 whole entry): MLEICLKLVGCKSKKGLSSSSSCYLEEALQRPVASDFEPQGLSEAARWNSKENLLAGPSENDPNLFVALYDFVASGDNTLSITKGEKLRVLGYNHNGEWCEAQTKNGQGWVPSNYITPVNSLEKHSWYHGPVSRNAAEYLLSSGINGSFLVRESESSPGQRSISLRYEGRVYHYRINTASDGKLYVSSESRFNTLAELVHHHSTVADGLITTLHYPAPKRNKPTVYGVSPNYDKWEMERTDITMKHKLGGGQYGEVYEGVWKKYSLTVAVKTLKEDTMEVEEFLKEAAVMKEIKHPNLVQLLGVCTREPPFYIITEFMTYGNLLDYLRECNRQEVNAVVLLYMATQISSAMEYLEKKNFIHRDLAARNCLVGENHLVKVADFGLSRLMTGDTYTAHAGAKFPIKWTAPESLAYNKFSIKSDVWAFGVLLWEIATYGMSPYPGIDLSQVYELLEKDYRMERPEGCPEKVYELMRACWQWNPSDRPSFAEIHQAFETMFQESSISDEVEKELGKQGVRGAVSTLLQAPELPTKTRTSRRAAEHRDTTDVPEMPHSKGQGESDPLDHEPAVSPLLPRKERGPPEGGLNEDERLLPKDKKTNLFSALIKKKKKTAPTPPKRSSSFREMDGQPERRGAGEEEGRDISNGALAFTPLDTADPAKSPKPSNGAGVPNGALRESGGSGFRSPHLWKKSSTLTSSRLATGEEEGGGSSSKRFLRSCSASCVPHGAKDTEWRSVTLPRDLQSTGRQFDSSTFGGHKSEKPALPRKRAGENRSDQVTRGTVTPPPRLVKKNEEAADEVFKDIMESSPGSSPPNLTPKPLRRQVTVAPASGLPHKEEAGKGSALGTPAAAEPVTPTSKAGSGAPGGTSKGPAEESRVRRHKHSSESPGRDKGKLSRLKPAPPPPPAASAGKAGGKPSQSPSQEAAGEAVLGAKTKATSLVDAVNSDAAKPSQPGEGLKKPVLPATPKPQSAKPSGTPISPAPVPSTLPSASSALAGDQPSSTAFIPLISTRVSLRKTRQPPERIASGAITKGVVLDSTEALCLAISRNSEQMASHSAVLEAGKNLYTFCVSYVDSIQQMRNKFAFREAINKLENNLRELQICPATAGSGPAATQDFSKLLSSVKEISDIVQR

With `C[C@@H]1COC2NC=NC=C2c2cc(C(=O)Nc3ccc(OC(F)(F)Cl)cc3)cc3nc(C(F)F)n1c23` (some centres unmarked) [Crystal form A of p-tosylate], in [1] (Rat PO 10 mg/kg), the AUC(0-inf) (usually the area under the concentration-time curve extrapolated to infinity) amounted to 2600 ng·h/mL; the Cmax (commonly the peak of the concentration-time curve) worked out at 881 ng/mL; the MRT (usually a mean duration of stay, worked out from the concentration-time curve) was determined as 2.86 h; the Tmax (commonly the time from dosing to the highest level) was 1 h. The half-life – broadly, the time needed for the level to fall by half in the phase considered – in [1] (Rat PO 10 mg/kg) was 3.55 h. Moreover, in [1] (Rat PO 30 mg/kg), the AUC(0-inf) turned out to be 15600 ng·h/mL, the Cmax came to 4510 ng/mL, the MRT was found to be 2.97 h and the Tmax came to 1 h. In [1] (Rat PO 30 mg/kg), the half-life was 2.71 h. The F in [2] (beagle dogs, gavage 20 mg/kg, suspension in 0.5% HPMC K4M) came out at 68.6%. In addition, in [2] (setting [16]), the total exposure AUC(0-inf) turned out to be 40400 ng·h/mL, the Cmax was determined as 5720 ng/mL, the MRT turned out to be 5.47 h and the Tmax came out at 1.33 h. Also, in [2] (setting [16]), the half-life is 5.58 h.

With `Cc1ccc(NC(=O)c2ccc(CN3CCN(C)CC3)cc2)cc1Nc1nccc(-c2cccnc2)n1` [Imatinib], in [3] (75 mg/kg qd), the T/C (usually the ratio of treated to control) was 46.92% and the TGI is 56.03%.

In the case of “(3R)-N-(4-(chlorodifluoromethoxy)phenyl)-2-(difluoromethyl)-3-methyl-3,4,5a,6-tetrahydro-5-oxa-1,2a,6,8-tetraazabenzo[4,5]cyclooctyl[1,2,3-cd]indene-11-carboxamide [crystal form A of the p-tosylate]”, the “pharmacokinetics in rats (in words)” value in [1] (gavage, dose of 30 mg/kg) is recorded as “good metabolic properties”. Further, the “thermodynamic stability among crystal forms of the p-tosylate” value in data set [4] is reported as “the most thermodynamically stable crystal form among these crystal forms”. The “crystal form (XRPD pattern) after hygroscopic-dehygroscopic cycles” value in data set [5] (2 cycles at relative humidity of 0-95%) was “remained unchanged”. Besides, in [5] (at RH 80%), the hygroscopic weight gain is 0.3545%. The “stability in a humid environment” value in data set [5] (conclusion in words) is reported as “stable in a humid environment”. Besides, the “pharmacokinetics in dogs (in words)” value in data set [2] (gavage, 20 mg/kg) was “good metabolic properties, exposure dosage, and significantly improved bioavailability”. The Crystal form results in [6] (Initial (before slurrying)) is recorded as “Form A”; in data set [6] (slurried in 2-butanone, room temperature, 2 weeks, XRPD), “Form A”; in data set [6] (slurried in 2-methyltetrahydrofuran, room temperature, 2 weeks, XRPD) it was “Form A”; in data set [6] (slurried in 3-pentanone, room temperature, 2 weeks, XRPD), “Form A”; in data set [6] (slurried in Acetone, room temperature, 2 weeks, XRPD), “Form A”; in data set [6] (slurried in Acetonitrile, room temperature, 2 weeks, XRPD), “Form A”. Further, the Crystal form results in data set [6] (slurried in Chloroform, room temperature, 2 weeks, XRPD) is recorded as “Form A”; in data set [6] (slurried in Dichloromethane, room temperature, 2 weeks, XRPD), “Form A”; in data set [6] (slurried in Ethanol, room temperature, 2 weeks, XRPD), “Form A”; in [6] (slurried in Ethyl acetate, room temperature, 2 weeks, XRPD), “Form A”; in data set [6] (slurried in Ethyl formate, room temperature, 2 weeks, XRPD) it was “Form A”; in data set [6] (slurried in Isopropanol, room temperature, 2 weeks, XRPD), “Form A”. The Crystal form results is “Form A” in data set [6] (slurried in Isopropyl acetate, room temperature, 2 weeks, XRPD); “Form A” in data set [6] (slurried in Methanol, room temperature, 2 weeks, XRPD); “Form A” in data set [6] (slurried in Tetrahydrofuran, room temperature, 2 weeks, XRPD); “Form A” in data set [6] (slurried in Toluene, room temperature, 2 weeks, XRPD); “Form A” in data set [6] (slurried in n-heptane, room temperature, 2 weeks, XRPD).

Consider “p-tosylate of (3R)-N-(4-(chlorodifluoromethoxy)phenyl)-2-(difluoromethyl)-3-methyl-3,4,5a,6-tetrahydro-5-oxa-1,2a,6,8-tetraazabenzo[4,5]cyclooctyl[1,2,3-ed]indene-11-carboxamide [Example 1]”, for which the IC50 – broadly, the concentration that inhibits the measured activity by half – in data set [7] was 2.99 nM; in [8] it was 13 nM; in data set [9], 14.6 nM; in data set [10], 4.13 nM; in [11] it was 5.36 nM; in data set [12], 46.8 nM. Besides, the IC50 amounted to 7.15 nM in data set [13], 26.3 nM in data set [14] and 0.43 nM in data set [15]. Moreover, the T/C in data set [3] (1.5 mg/kg bid) is on record as 7.05%; in data set [3] (3 mg/kg bid), 0.69%; in [3] (3 mg/kg qd), 3.98%; in data set [3] (7.5 mg/kg bid), 0.52%. In addition, the TGI in data set [3] (1.5 mg/kg bid) is 98.20%; in [3] (3 mg/kg bid), 187.08%; in [3] (3 mg/kg qd), 127.26%; in data set [3] (7.5 mg/kg bid) it was 190.62%. The Tumor volume in [3] (1.5 mg/kg bid) was determined as 143±35 mm^3; in data set [3] (3 mg/kg bid), 14±5 mm^3; in [3] (3 mg/kg qd) it was 81±19 mm^3; in data set [3] (7.5 mg/kg bid), 11±7 mm^3.
